Data on three compounds can be found in the NIST ThermoML archive (doi:10.1016/j.jct.2014.08.020).

A short description of data set [1]: molar enthalpy of vaporization or sublimation. Particulars: 298.15 K; Liquid; Static calorimetry.
The nature of data set [2]: molar heat capacity at constant pressure. Particulars: 300.6 K; 101.33 kPa; Liquid; Drop calorimetry.

Numbers after ± are expanded uncertainties.

In the case of `CCn1ccnc1` [1-ethyl-1H-imidazole], the molar enthalpy in data set [1] was determined as 13.8 ± 0.237 kcal/mol. For the compound `CCCCCCCCn1ccnc1` [1-octylimidazole], the molar enthalpy in data set [1] is 19.4 ± 0.335 kcal/mol. Moreover, the “molar heat capacity at constant pressure” value in data set [2] worked out at 382.21 ± 23 J/K/mol. `CCCCn1ccnc1` [1-butylimidazole]: the molar enthalpy in data set [1] was 15.3 ± 0.153 kcal/mol.
